The source of these data is PMC7948479, “Allostery in the nitric oxide dioxygenase mechanism of flavohemoglobin” (The Journal of Biological Chemistry, 2020).

One experiment can be described thus: TMAO reductase activity. The following applies: CO 50 μM; AsnF7 variant. It counts as biochemical.
Experiment [1] deals with flavoHb heme (Fe^2+ / Fe^3+) (Escherichia coli, UniProt P24232, Q53H). The settings on record: HisE7 variant; 100 μM CO. As to the method:
(§1) FAD and heme reduction were monitored by following the changes in flavoHb absorbance at 460 and 430 nm, respectively, with stopped-flow rapid mixing of 50 μM NADH and 10 μM flavoHb in N2-purged buffer ([4]). O2, NO, and CO association rate constants were determined by photolyzing 50 μM of the respective ferrous flavoHb species with a 300-ns pulse from a 577-nm laser and by spectrophotometrically following ligand reassociation in O2-, NO-, or CO-saturated buffer unless otherwise indicated ([4], [5]). […] Binding of NO was measured by the change of absorbance at 422 nm by applying a difference extinction coefficient of 0.040 μM^−1 cm^−1. O2 and CO dissociation rate constants were determined by stopped-flow rapid mixing with either CO or NO displacement ([4], [5]). The cuvette path length was 1.0 cm. All reactions were at 20 °C in filtered 100 mM sodium phosphate buffer, pH 7.0, containing 0.3 mM EDTA. Catalase (1000 U/ml) was included in all reactions containing O2 to scavenge H2O2 produced by the NADH oxidase activity of flavoHb and to regenerate O2.

In experiment [2] the target is flavoHb heme (Fe^2+ / Fe^3+) (Escherichia coli, UniProt P24232). The method, then:
as §1

Experiment [3] deals with flavoHb heme (Fe^2+ / Fe^3+) (Escherichia coli, UniProt P24232, Y29F). The settings on record: PheB10 variant; 100 μM CO. As to the method: as §1
Experiment [4] concerns E. coli flavoHb-NOD. The settings on record: read-out: Ki(CO); cited from earlier work.
The next experiment has as its target T1, flavoHb-NOD (Escherichia coli, UniProt P24232).
T1 construct: made in house; host or cells: E. coli hmp deletion strain AG103 carrying pUC19hmp
The experiment is described as follows: H2O2 sensitivity of the flavoHb-NOD. It counts as biochemical. The following applies: for protection of flavoHb-NOD against H2O2: resting state, 2 mM ascorbate or 10 µM miconazole. As to the method: Figure S5. H2O2 sensitivity of the flavoHb-NOD. NOD activity of flavoHb is rapidly lost upon exposure to H2O2 (panel A), and heme absorbance decreases with H2O2 exposure (panel B). The peroxidizable substrate ascorbate and the heme ligand miconazole (6) afford protection thus […]
(A) FlavoHb (0.1 µM heme) […]
was exposed to 0 (○), 50 (◼) or 200 µM H2O2 (●). Catalase (1000 U/mL) was added at various times to terminate reactions, and NOD activity was measured as described under Experimental Procedures. (B) Ferric flavoHb (5 µM heme) was exposed to 200 µM H2O2, and spectra were recorded at 2 min intervals (solid lines) or after a 10 min exposure in the presence of 2 mM ascorbate (dashed line) or 10 µM miconazole (dotted line). Reactions were at 37°C in 50 mM potassium phosphate buffer, pH 7.8, containing 0.1 mM EDTA. Error bars represent the S.D. of […]
(1 picture or pasted object on this page, not shown here)

Experiment [5] has as its target E. coli flavoHb-NOD (Escherichia coli, UniProt P24232). It counts as biochemical. More on the design: made in house; host or cells: E. coli hmp deletion strain AG103 carrying pUC19hmp. An excerpt:
We have formulated a steady-state velocity equation for the catalytic cycle with the activating trigger step (KT) (Equation 1).(1) v= Vmax(a) where a=([NO]^2[O2]^2/K1K2K3KTK4)/(1+([O2]/K1)+([O2]^2/K1K2)+(([O2]^2[NO])/K1K2K3)+(([O2]^2[NO])/K1K2K3KT)+(([O2]^2[NO]^2)/K1K2K3KTK4))
(2) v= Vmax(a)(b) where b=[NO]/(K3+([NO](1+((K2/[O2])(1+([NO]/Ki(NO)))))))
In addition, we have introduced a factor and equilibrium constant Ka(O2) for rare situations in which O2 causes an additional NO-independent activation of catalysis possibly by occupying unique binding sites or cavities (Equation 5).
(§2) NOD activity was measured amperometrically in 100 mM phosphate buffer, pH 7.0, containing 0.3 mM EDTA, 100 μg/ml bovine serum albumin (BSA) (Fraction V), 100 μM NADH, 0.1 μM FAD with NO, O2, and N2 mixtures added as described ([4], [72]). NADH oxidase activity was followed spectrophotometrically at 340 nm in a 1.0-ml cuvette containing 90 mM Tris chloride buffer, pH 8.2, 100 μM NADH, 200 μM O2, 0.1 μM FAD, 100 μg/ml BSA, and 0.3 mM EDTA and incubated at 37 °C. Cytochrome b5 reductase activity was assayed at 37 °C by following the rate of absorbance increase at 555 nm in a 1.0-ml reaction buffered with 90 mM Tris chloride, pH 8.2, and containing 10 μM ferric cytochrome b5, 200 μM O2, 20 μM NADH, 0.1 μM FAD, 100 μg/ml BSA, and 0.3 mM EDTA. TMAO reductase activity was assayed by following the absorbance decrease at 340 nm in a 1.0-ml anaerobic reaction containing 12 U Aspergillus niger glucose oxidase, 5 mM glucose, 260 U catalase, 400 mM TMAO, 100 μM NADH, 0.1 μM FAD, 100 μg/ml BSA, and 0.3 mM EDTA in 90 mM Tris chloride pH 8.2 and incubated at 37 °C. Ngb reductase activity was assayed by following the absorbance increase at 424 nm in a 1.0-ml anaerobic reaction containing 12 U glucose oxidase, 5 mM glucose, 260 U catalase, 5 μM Ngb, 50 μM NADH, 0.1 μM FAD, 100 μg/ml BSA, and 0.3 mM EDTA in 90 mM Tris chloride buffer, pH 8.2, and incubated at 37 °C. Methyl viologen reductase activity was assayed by following the formation of the blue cation radical at 603 nm and by applying an extinction coefficient of 13,300 M^−1 cm^−1 in a 1.0-ml anaerobic reaction buffered with 10 mM potassium phosphate, pH 7.0, and containing 12 U glucose oxidase, 5 mM glucose, 260 U catalase, 100 μM NADH, 0.1 μM FAD, 100 μg/ml BSA, 0.3 mM EDTA, and 200 mM sodium chloride and incubated at 37 °C. NO reductase activity was assayed amperometrically at 37 °C in a 1.0-ml anaerobic reaction containing 2 μM NO, 100 μM NADH, 0.1 μM FAD, 12 U glucose oxidase, 5 mM glucose, 260 U catalase, 100 μg/ml BSA, and 0.3 mM EDTA buffered with 10 mM potassium phosphate pH 7.0. CO effects were tested at a final concentration of 50 μM as diluted from a 1 mM stock in water. All activities are reported relative to the heme content of flavoHb.
Rate constants were estimated from the model kinetic equation using Python programming with successive approximations to optimize fits with varying NO and O2 concentrations. Vmax, K1, K2, KT, and Kii(NO) values were treated as independent variables for a given flavoHb while allowing K3, K4, and Ki(NO) to vary over limited ranges with varying O2 concentration. Kii(NO) was estimated from NO inhibition at saturating O2 concentrations.

Experiment [6] concerns the target E. coli flavoHb-NOD (Escherichia coli, UniProt P24232, K84N). The following applies: 1000 U of catalase. As to the method: as §2

What is called Ki is the equilibrium dissociation constant of an inhibitor or competing ligand from its target. Take `[C-]#[O+]` [CO, reference compound]: the “inhibition of TMAO reduction” value in “TMAO reductase activity” is roughly 90%. Also, the “inhibition of O2 migration and binding in the slow phase” value in experiment [1] and in experiment [3] was roughly 50% each time. Moreover, the “inhibition of fast phase of O2 rebinding” value in experiment [2] was roughly 10%. Moreover, the “inhibition of slow phase of O2 rebinding” value in experiment [2] worked out at 86%. Moreover, the inhibition constant (Ki) in the experiment on E. coli flavoHb-NOD [4] is roughly 1000 nM. Turning to `OO` [H2O2], the “effect of H2O2 on flavoHb-NOD activity” value at flavoHb-NOD (50 or 200 µM H2O2) is “sensitive”. Turning to `O=O` [O2], on E. coli flavoHb-NOD [5], the “inhibition by O2 with respect to NO” value is reported as “no competitive inhibition” and the “selectivity for O2 over N2” value is recorded as “greater than 80 fold”. Take `O=C1O[C@H]([C@@H](O)CO)C(O)=C1O` [ascorbate]: the “protection of flavoHb-NOD against H2O2” value at flavoHb-NOD is recorded as “protect”.

Turning to `Clc1ccc(COC(Cn2ccnc2)c2ccc(Cl)cc2Cl)c(Cl)c1` (stereo not shown) [miconazole], the “protection of flavoHb-NOD against H2O2” value on flavoHb-NOD is given as “protect”.

As for Catalase, the “protection of AsnF7 NOD activity from inactivation” value at E. coli flavoHb-NOD [6] is reported as “modest protection”. For nitric oxide [NO], the “inhibition of NOD activity by NO” value at E. coli flavoHb-NOD [5] (1:100 ratio of NO to O2, reversible, competitive with O2) is given as “roughly 50%”.
